Test results from ChEMBL document CHEMBL5131480, “Cinnamic acid derivatives linked to arylpiperazines as novel potent inhibitors of tyrosinase activity and melanin synthesis” (Eur J Med Chem, 2022).
Calls of active or inactive are those of the source. The calls are words filed in the database; no cut-off is given here.

What was measured:
[1] = target: Mushroom tyrosinase (Agaricus bisporus, UniProt O42713+Q00024+C7FF04+C7FF05); assay: Inhibition of mushroom tyrosinase using L-DOPA as substrate preincubated with substrate for 10 mins followed by addition of enzyme and measured for 5 mins by spectrophotometric analysis
[2] = in vitro; conditions: human, A-375 cells
Description: Cytotoxicity against human A-375 cells assessed as cell viability at 50 uM incubated for 72 hrs by MTT assay relative to control

[3] = Acute toxicity in zebra fish embryos assessed as lack of somite formation at 25 to 100 uM measured after 24 to 48 hrs by stereomicroscope analysis; design: species or system Danio rerio; conditions: zebrafish, dose lower 25 µM, time lower 24 hrs, dose upper 100 µM, time upper 48 hrs
[4] = in vitro; conditions: human, A-375 cells; remark: listed apart in the source
Description: Cytotoxicity against human A-375 cells assessed as reduction in cell viability incubated for 72 hrs by MTT assay

[5] = species on record: Danio rerio; assay: Anti-melanogenic activity against zebra fish embryos assessed as proportion of embryos showing moderate decrease in melanogenesis at 25 uM measured after 48 hrs by stereomicroscope analysis relative to control; format: functional; design: scale not given: the % may be the effect or the level left
[6] = species on record: Danio rerio; assay: Anti-melanogenic activity against zebra fish embryos assessed as proportion of embryos with none to mild moderate decrease in melanogenesis at 25 uM measured after 48 hrs by stereomicroscope analysis relative to control; format: functional; design: scale not given: the % may be the effect or the level left
[7] = Acute toxicity in zebra fish embryos assessed as coagulation of fertilized eggs measured at 25 to 100 uM measured after 24 to 48 hrs by stereomicroscope analysis; design: species or system Danio rerio; conditions: zebrafish, dose lower 25 µM, time lower 24 hrs, dose upper 100 µM, time upper 48 hrs
[8] = target: Mushroom tyrosinase (Agaricus bisporus) (UniProt O42713+Q00024+C7FF04+C7FF05); assay: Potency index, ratio of kojic acid IC50 to test compound IC50 for mushroom tyrosinase by spectrophotometric analysis
[9] = target: T1, Tyrosinase (Homo sapiens) (UniProt P14679); assay: Inhibition of tyrosinase activity in alpha-MSH stimulated human A-375 cells using L-DOPA as substrate at 20 uM by microplate reader analysis relative to control; format: cell-based
T1 sequence (whole entry): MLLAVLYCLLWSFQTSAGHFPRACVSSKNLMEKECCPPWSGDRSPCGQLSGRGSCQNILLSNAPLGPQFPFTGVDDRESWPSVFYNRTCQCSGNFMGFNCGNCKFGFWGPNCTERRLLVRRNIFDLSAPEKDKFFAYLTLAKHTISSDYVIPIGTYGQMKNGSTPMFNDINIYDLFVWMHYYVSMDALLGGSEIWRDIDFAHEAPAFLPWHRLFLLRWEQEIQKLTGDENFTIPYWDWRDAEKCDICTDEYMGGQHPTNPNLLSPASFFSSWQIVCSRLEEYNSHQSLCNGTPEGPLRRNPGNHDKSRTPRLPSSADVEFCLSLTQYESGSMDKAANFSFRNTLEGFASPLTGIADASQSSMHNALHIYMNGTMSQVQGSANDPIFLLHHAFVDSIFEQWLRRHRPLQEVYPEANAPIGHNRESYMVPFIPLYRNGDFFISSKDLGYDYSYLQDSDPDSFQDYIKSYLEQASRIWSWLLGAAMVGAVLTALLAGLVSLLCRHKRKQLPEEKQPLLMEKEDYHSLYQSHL

[10] = Cytotoxicity against human A-375 cells assessed as cell viability at 20 uM incubated for 72 hrs by MTT assay relative to control; format: toxicity, cell-based; conditions: read-out: Activity
[11] = species on record: Danio rerio; assay: Anti-melanogenic activity against zebra fish embryos assessed as proportion of embryos showing profound decrease in melanogenesis at 25 uM measured after 48 hrs by stereomicroscope analysis relative to control; format: functional; design: scale not given: the % may be the effect or the level left
[12] = species on record: Danio rerio; assay: Anti-melanogenic activity against zebra fish embryos assessed as proportion of embryos showing profound decrease in melanogenesis at 50 uM measured after 48 hrs by stereomicroscope analysis relative to control; format: functional; design: scale not given: the % may be the effect or the level left
[13] = species on record: Danio rerio; assay: Anti-melanogenic activity against zebra fish embryos assessed as proportion of embryos showing moderate decrease in melanogenesis at 50 uM measured after 48 hrs by stereomicroscope analysis relative to control; format: functional; design: scale not given: the % may be the effect or the level left
[14] = species on record: Danio rerio; assay: Anti-melanogenic activity against zebra fish embryos assessed as proportion of embryos with none to mild moderate decrease in melanogenesis at 50 uM measured after 48 hrs by stereomicroscope analysis relative to control; format: functional; design: scale not given: the % may be the effect or the level left
[15] = Acute toxicity in zebra fish embryos assessed as lack of detachment of tail bud from yolk sac at 25 to 100 uM measured after 24 to 48 hrs by stereomicroscope analysis; design: species or system Danio rerio, Embryo; conditions: zebrafish, dose lower 25 µM, time lower 24 hrs, dose upper 100 µM, time upper 48 hrs
[16] = Acute toxicity in zebra fish embryos assessed as lack of heart beat at 25 to 100 uM measured after 24 to 48 hrs by stereomicroscope analysis; format: tissue-based, Danio rerio; conditions: zebrafish, dose lower 25 µM, time lower 24 hrs, dose upper 100 µM, time upper 48 hrs
[17] = Acute toxicity in zebra fish embryos assessed as lack of somite formation at 25 to 100 uM measured after 24 hrs by stereomicroscope analysis; design: species or system Danio rerio; conditions: zebrafish, dose 25-100 µM
[18] = Acute toxicity in zebra fish embryos assessed as strong malformation embryos at 100 uM measured after 48 hrs by stereomicroscope analysis; design: species or system Danio rerio; conditions: zebrafish
[19] = Acute toxicity in zebra fish embryos assessed as coagulation of fertilized eggs at 25 to 100 uM measured after 24 hrs by stereomicroscope analysis; design: species or system Danio rerio; conditions: zebrafish, dose 25-100 µM
[20] = Acute toxicity in zebra fish embryos assessed as lack of heart beat at 25 to 100 uM measured after 24 hrs by stereomicroscope analysis; format: tissue-based, Danio rerio; conditions: zebrafish, dose 25-100 µM
[21] = Acute toxicity in zebra fish embryos assessed as lack of detachment of tail bud from yolk sac at 25 to 100 uM measured after 24 hrs by stereomicroscope analysis; design: species or system Danio rerio, Embryo; conditions: zebrafish, dose 25-100 µM
[22] = Acute toxicity in zebra fish embryos assessed as bradycardia at 25 to 100 uM measured after 48 hrs by stereomicroscope analysis; design: species or system Danio rerio; conditions: zebrafish, dose 25-100 µM
[23] = Acute toxicity in zebra fish embryos assessed as death of organism at 50 uM measured after 48 hrs by stereomicroscope analysis; design: species or system Danio rerio; conditions: zebrafish
[24] = Acute toxicity in zebra fish embryos assessed as pericardial edema and embryonic lethality at 50 uM measured after 24 hrs by stereomicroscopic analysis; design: species or system Danio rerio; conditions: zebrafish
[25] = Acute toxicity in zebra fish embryos assessed as alteration in heart functioning at 50 uM measured after 24 hrs by stereomicroscopic analysis; format: tissue-based, Danio rerio; conditions: zebrafish
[26] = Acute toxicity in zebra fish embryos assessed as bradycardia at 25 to 100 uM measured after 24 hrs by stereomicroscope analysis; design: species or system Danio rerio; conditions: zebrafish, dose 25-100 µM
[27] = Acute toxicity in zebra fish embryos assessed as strong malformation embryos at 25 to 100 uM measured after 48 hrs by stereomicroscope analysis; design: species or system Danio rerio; conditions: zebrafish, dose 25-100 µM
[28] = target: T1, Tyrosinase (Homo sapiens); assay: Inhibition of tyrosinase activity in alpha-MSH stimulated human A-375 cells using L-DOPA as substrate at 20 uM by microplate reader analysis; format: cell-based
[29] = Acute toxicity in zebra fish embryos assessed as death of organism measured at 25 to 100 uM measured after 24 hrs by stereomicroscope analysis; design: species or system Danio rerio; conditions: zebrafish, dose 25-100 µM

Row | Structure (SMILES) | IC50 [1] [µM] | viability at 72 h, 50 µM [2] [%] | GI50 at 72 h [4] [µM] | Activity [5] [%] | Activity [6] [%] | Ratio IC50 [8] | viability at 72 h, 20 µM [10] [%] | Activity [11] [%] | Activity [12] [%] | Activity [13] [%] | Activity [14] [%] | also measured
1 | COc1ccc(/C=C/C(=O)N2CCN(c3ccc(F)c(F)c3)CC2)cc1N | 6.84 |  |  |  |  |  |  |  |  |  |  | 
2 | COc1ccc(/C=C/C(=O)N2CCN(Cc3ccccc3)CC2)cc1N | 55.64 |  |  |  |  |  |  |  |  |  |  | 
3 | O=C(/C=C/c1cccc([N+](=O)[O-])c1)N1CCN(c2ccc(F)cc2)CC1 | 23.32 |  |  |  |  |  |  |  |  |  |  | 
4 | COc1ccc(/C=C/C(=O)N2CCN(c3ccc(F)c(Cl)c3)CC2)cc1[N+](=O)[O-] | 0.51 | 93.5 | > 50 | 60 | 25 | 30 | 98 | 15 | 10 | 45 | 45 | Activity [3]: Non-Toxic; Activity [7]: Non-Toxic; inhibition [9]: 60%; Activity [15]: Non-Toxic; Activity [16]: Non-Toxic
5 | O=C(/C=C/c1ccc(Cl)cc1)N1CCN(c2ccc(F)cc2)CC1 | 14.09 |  |  |  |  |  |  |  |  |  |  | 
6 | COc1ccc(/C=C/C(=O)N2CCN(c3ccc(F)cc3)CC2)cc1N | 17.85 |  |  |  |  |  |  |  |  |  |  | 
7 | COc1cccc(/C=C/C(=O)N2CCN(c3ccc(F)cc3)CC2)c1 | 9.96 |  |  |  |  |  |  |  |  |  |  | 
8 | O=C(/C=C/c1cccc([N+](=O)[O-])c1)N1CCN(c2ccc(F)c(Cl)c2)CC1 | 0.16 | 87.2 | > 50 | 0 | 100 | 30 | 98 | 0 | 0 | 15 | 85 | Activity [17]: Non-Toxic; Activity [18]: 6.6%; Activity [19]: Non-Toxic; Activity [20]: Non-Toxic; Activity [21]: Non-Toxic
9 | O=C(/C=C/c1ccc(Cl)cc1)N1CCN(c2ccc(F)c(Cl)c2)CC1 | 0.33 |  | 43.8 | 0 | 0 | 30 | 98 | 0 | 0 | 5 | 95 | Activity [17]: Non-Toxic; Activity [22]: Toxic; Activity [19]: Non-Toxic; Activity [20]: Non-Toxic; Activity [21]: Non-Toxic
10 | COc1ccc(/C=C/C(=O)N2CCN(c3ccc(F)c(Cl)c3)CC2)cc1N | 0.53 |  | 16.1 | 20 | 80 | 30 | 45 | 0 | 30 | 20 | 50 | Activity [3]: Non-Toxic; Activity [7]: Non-Toxic; Activity [15]: Non-Toxic; Activity [16]: Non-Toxic
11 | COc1ccc(Cl)cc1/C=C/C(=O)N1CCN(c2ccc(F)c(Cl)c2)CC1 | 0.46 | 72.6 | > 50 |  |  | 30 | 98 |  |  |  |  | Activity [17]: Non-Toxic; Activity [23]: Toxic; Activity [22]: Toxic; Activity [19]: Non-Toxic; Activity [20]: Non-Toxic; Activity [21]: Non-Toxic; Activity [24]: 5%; Activity [25]: 95%
12 | COc1ccc(/C=C/C(=O)N2CCN(c3cccc(F)c3)CC2)cc1N | > 100 |  |  |  |  |  |  |  |  |  |  | 
13 | O=C(/C=C/c1ccc([N+](=O)[O-])cc1)N1CCN(c2ccc(F)c(Cl)c2)CC1 | 0.35 | 85.4 | > 50 |  |  | 30 | 98 |  |  |  |  | Activity [26]: Toxic; Activity [27]: 13.3%
14 | O=C(/C=C/c1ccc2c(c1)OCO2)N1CCN(c2cccc(Cl)c2)CC1 | 34.25 |  |  |  |  |  |  |  |  |  |  | 
15 | COc1cccc(/C=C/C(=O)N2CCN(c3ccc(F)c(Cl)c3)CC2)c1 | 0.25 | 54 | > 50 | 0 | 100 | 30 | 98 | 0 | 0 | 0 | 100 | Activity [3]: Non-Toxic; Activity [7]: Non-Toxic; Activity [15]: Non-Toxic; Activity [16]: Non-Toxic; inhibition [28]: Active
16 | COc1ccc(/C=C/C(=O)N2CCN(c3ccc(F)c(F)c3)CC2)cc1[N+](=O)[O-] | 15.47 |  |  |  |  |  |  |  |  |  |  | 
17 | COc1cccc(/C=C/C(=O)N2CCN(c3ccc(F)c(Cl)c3)CC2)c1Cl | 0.12 | 69.6 | > 50 | 15 | 85 | 150 | 98 | 0 | 20 | 30 | 50 | Activity [29]: Toxic; Activity [20]: Toxic; inhibition [28]: Active
18 | COc1ccc(Cl)cc1/C=C/C(=O)N1CCN(c2ccc(F)cc2)CC1 | 27.4 |  |  |  |  |  |  |  |  |  |  | 
